Test results published in patent US9463195B2, “Dissolution of amyloid fibrils by flavonoids and other compounds” (The Regents of the University of California, priority 2006, dated 2016).
Structures can show the parent of a compound that is named as a salt. Where two headings read alike, the source gives them in different places.

Key:
[1] = target: T1, preformed human β-2 microglobulin fibrils (Homo sapiens, UniProt P61769); assay: Dose-response testing by thioflavin T fluorescence; type: biochemical; details: for Dose-Response (conc. at which slope is better than control): ThT/β2M fibril fluorescence, tested 100 nM to 10 mM; for concentration at which preformed human B2M fibrils are disrupted: in the range of
Description: Twelve compounds were selected for testing their dose-response effects. Dose-response curves were derived as follows. Preformed β-2 microglobulin fibrils were mixed with ThT in the ratios described above and divided into portions of 40 μL per well across 8 wells. The final concentrations were the same as used in the high-throughput screen: 4.1 μM ThT, 41.2 mM glycine, 0.018 mg/mL B2M, 35 mM NaCl, 4.4 mM phosphate. The first and last wells of each row were controls (B2M fibrils+ThT+solvent (water or DMSO)). To wells 2-7 of a given row, test compound was added to the β2M fibril/ThT mix such that the following final concentrations in the well were reached: 10 mM, 1 mM, 100 μM, 10 μM, 1 μM, and 100 nM. Each row was set up in duplicate. The wells were incubated for 99 hours and data collected at 2.5 hour intervals. Compound 22 was tested using both water and DMSO as solvent.
It is visually apparent that concentrations down to 10 μM of both compound 22 and L18 affect the B2M/Tht fluorescence.

[2] = target: T1, preformed human β-2 microglobulin fibrils; assay: Thioflavin T fluorescence high-throughput screen (slope assay score) for disruption of preformed fibrils; type: biochemical; details: for Slope Assay Score: slope of relative ThT fluorescence versus time, more negative = stronger disruption
Description: As used herein, “slope assay score” means the slope of the relative fluorescence of thioflavin T versus time curve for a given compound in a thioflavin T fluorescence assay. A negative slope signifies a decrease in thioflavin T fluorescence over time.
The human β-2 microglobulin fibrils were prepared in vitro at 0.1 mg/mL protein in 25 mM phosphate, pH 2, 0.2 M NaCl without agitation for 1 week at 37° C., in the same manner as Ivanova et al. See Ivanova et al. (Proc Natl Acad Sci U.S.A. 2004 Jul. 20; 101(29):10584-9).
In our experiments, disruption of the fibrillar structure of preformed β-2 microglobulin fibrils was monitored by fluorescence. The dye used, thioflavin T, serves as a probe for the presence or absence of amyloid fibrils. Thioflavin T binds specifically to human β-2 microglobulin fibrils, causing a red shift in the fluorescence excitation spectra of the dye to produce a peak in the fluorescence emission spectrum at 482 nm when the excitation wavelength is set at 444 nm. […] Because aliquotting of fibrils has an inherent variability, we aimed for a high signal/noise ratio of ˜10.
In the fluorescence assay used here, preformed human β-2 microglobulin fibrils were mixed with a solution of 5 μM ThT in 50 mM glycine, pH 8.6 in a 3:14 ratio (final concentrations: 4.1 μM ThT, 41.2 mM glycine, 0.018 mg/mL β-2 microglobulin, 35 mM NaCl and 4.4 mM phosphate). Fluorescence was measured immediately after mixing (excitation wavelength set at 444 nm, emission wavelengths at 482, 490, and 502 nm) with a Molecular Devices FlexStation II.
In our experiments, we screened 5200 compounds to determine whether a compound could disrupt preformed human β-2 microglobulin fibrils. Preformed β-2 microglobulin fibrils and ThT were mixed in the ratios described above in Example 2 and divided among seventeen 384-well glass-bottom plates (Costar #6569) using 40 μL/well. Each of the sixteen commercial plates contained four columns of control wells: columns 1, 2, and 23 contained preformed fibrils+dimethylsulfoxide (herein, DMSO), but no compound; column 24 contained nonfibrillar β2M+DMSO (no compound). The final concentrations of compound and DMSO in the other wells were 10 μM and 1%, respectively. Compounds were obtained from the following chemical libraries: the MicroSource Discovery Systems, Inc. Spectrum Collection library (J Virology 77: 10288 (2003); Ann Rev Med 56: 321 (2005)), the first four plates from the Prestwick Chemical Inc. library, two BIOMOL plates (phosphatase/kinase inhibitor library and bioactive lipid library), and the first five plates from the ChemBridge Corporation DIVERSet.
Plate 17 was prepared in-house and set up slightly differently than the commercial plates. Column 24 contains nonfibrillar B2M as in the other plates. However, only the first two rows contain added compounds, and the remaining rows contain control samples (fibrils mixed with thioflavin T, no compound). The chemicals used to prepare this supplemental plate were purchased from SIGMA. For each compound, a 1 mM solution in OmniSolv DMSO was prepared and filtered with Millex-FG 0.2 micron filters. The supplementary plate contained compounds at 1 or 10 mM in 100% DMSO, such that the final screening concentration is 10 or 100 μM compound in I% DMSO.
All plates were read manually on a Molecular Devices FlexStation II using the bottom-read function. For each of the wells, an initial fluorescence intensity measurement was taken as a baseline.

β-amyloid fibrils = details: Bush study; cited from earlier work
[3] = test system: preformed β-amyloid fibrils; details: Bush 2002; cited from earlier work
[4] = cited from earlier work
[5] = target: T1, preformed human β-2 microglobulin fibrils; assay: Electron microscopy as a secondary screen of fibril disruption; type: biochemical; details: for state of fibrils by electron microscopy at 10 μM compound / state of fibrils by electron microscopy at 1 mM compound / state of fibrils by electron microscopy at 100 μM compound: two-week incubation; for effect on fibrils by electron microscopy: at the concentrations tested
Description: Electron microscopy was used to confirm the effects of, among others, compounds 22 and L18 on the fibrils. Compounds 22 and L18 were mixed with drug and solvent or solvent alone and were separately incubated with preformed human β-2 microglobulin fibrils for two weeks. Compound 22 was tested at three concentrations (1 mM, 100 μM, and 10 μM). Aliquots were taken immediately after mixing, at day 2, at day 5, day 7, and day 14. Samples were fixed to grids (made hydrophilic by glow-discharge) upon taking the aliquots, washed with distilled water, and stained with 1% uranyl acetate. Grids were examined in a Hitachi H-7000 transmission electron microscope operating at 75 kV. Images were collected on Kodak electron microscope film 4489.

[6] = orally at doses at least twice this high (Ullmann, Haller et al. 2004); cited from earlier work
[7] = Gordon M et al 2006; cited from earlier work

| Compound | dose-dependent effect on thioflavin T/β-2 microglobulin fibril fluorescence (words) [1] | effective in the fluorescence assay at disrupting β-2 microglobulin fibers [2] | concentration at which the compound affects thioflavin T/β-2M fibril fluorescence in a dose-dependent manner [1] | Dose-Response (conc. at which slope is better than control) [1] | Slope Assay Score [2] | effect on fibrils by electron microscopy [5] | also measured |
| --- | --- | --- | --- | --- | --- | --- | --- |
| CN1CCc2cccc3c2[C@H]1Cc1ccc(O)c(O)c1-3 [Apomorphine hydrochloride hemihydrate] | dose-dependent effect | effective | less than or equal to 1 μM | 1 to 10 µM | −.061 | – | – |
| Oc1c(I)cc(Cl)c2cccnc12 [Clioquinol] | – | – | – | – | – | – | effectiveness in mice (β-amyloid fibrils): effective; disruption of preformed β-amyloid fibrils [3]: disrupts |
| O=C(O[C@@H]1Cc2c(O)cc(O)cc2O[C@@H]1c1cc(O)c(O)c(O)c1)c1cc(O)c(O)c(O)c1 [Compound 22, Epigallocatechin gallate] | dose-dependent | disrupts | 10 µM | 10 µM | −.087 | had an effect on fibrils | average plasma level ([4]; patients, single oral dose (Chow et al. 2001)): 1 µM; plasma levels reached ([4]; single oral dose (Nakagawa, Okuda and Miyazawa 1997)): 4.4 µM; human plasma levels reached ([4]; single oral dose (Unno et al. 1996)): 2 to 4 µM; concentration at which preformed human B2M fibrils are disrupted [1]: ~10 µM; dose-dependent effect on thioflavin T/β-2 microglobulin fibril fluorescence (words) ([1]; listed as EGCG): dose-related effects; state of fibrils by electron microscopy at 10 μM compound [5]: significantly disrupted; state of fibrils by electron microscopy at 1 mM compound [5]: almost all of the fibrils; oral tolerability [6]: well-tolerated; solubility in water (Solubility in water): soluble |
| NC(CO)C(=O)NNCc1ccc(O)c(O)c1O (centres unmarked) [Compound L18, benserazide hydrochloride] | – | – | 10 µM | 10 µM | −.066 | had an effect on fibrils | dose-dependent effect on thioflavin T/β-2 microglobulin fibril fluorescence (words) ([1]; hydrochloride): dose-dependent; concentration at which preformed human B2M fibrils are disrupted [1]: ~10 µM; dose-dependent effect on thioflavin T/β-2 microglobulin fibril fluorescence (words) ([1]; listed as benserazide, hydrochloride): dose-related effects; plasma concentrations routinely achievable [7]: 6 µM |
| Cc1cc(O)c(C=O)c(O)c1C(=O)O [Haematommic Acid] | dose-dependent effect | effective | less than or equal to 10 μM | 1 µM | −.076 | visibly disrupted | state of fibrils by electron microscopy at 10 μM compound [5]: disrupted and unwound; state of fibrils by electron microscopy at 1 mM compound [5]: fibril dissolution was virtually complete |
| C=C1c2c(Cl)ccc(O)c2C(O)=C2C(=O)[C@]3(O)C(=O)/C(=C(\N)O)C(=O)[C@@H](N(C)C)[C@@H]3[C@@H](O)[C@H]12 [Meclocycline sulfosalicylate] | dose-dependent effect | effective | less than or equal to 10 μM | 10 µM | −.066 | visibly disrupted | state of fibrils by electron microscopy at 100 μM compound [5]: no intact fibrils present; state of fibrils by electron microscopy at 1 mM compound [5]: no visible fibrils |
| COc1cc(NC(C)CCCN)c2ncccc2c1 (centres unmarked) [Primaquine diphosphate] | dose-dependent effect | effective | less than or equal to 10 μM | 10 µM | −.058 | – | – |
| CCn1cc(C(=O)O)c(=O)c2ccc(C)nc21 [nalidixic acid] | – | effective | – | – | – | – | – |
| NCCc1cc(O)c(O)cc1O [oxidopamine] | – | effective | – | – | – | – | – |
| OC[C@H]1O[C@@H](Oc2cc(O)cc(/C=C/c3ccc(O)cc3)c2)[C@H](O)[C@@H](O)[C@@H]1O [resveratrol-3-glucoside] | – | – | – | – | – | did not have an effect on fibrils | – |
| Dobutamine hydrochloride | dose-dependent effect | effective | less than or equal to 10 μM | 10 µM | −.058 | – | – |

Second part, led by results:

| dose-dependent effect on thioflavin T/β-2 microglobulin fibril fluorescence (words) [1] | effective in the fluorescence assay at disrupting β-2 microglobulin fibers [2] | Compound | concentration at which the compound affects thioflavin T/β-2M fibril fluorescence in a dose-dependent manner [1] | Dose-Response (conc. at which slope is better than control) [1] | Slope Assay Score [2] | effect on fibrils by electron microscopy [5] | also measured |
| --- | --- | --- | --- | --- | --- | --- | --- |
| dose-dependent effect | effective | COc1cc(C)c2c(c1C=O)Oc1c(c(C)c(O)c3c1C(O)OC3=O)OC2=O (centres unmarked) [Stictic Acid] | ≤ 10 µM | 10 µM | −.098 | visibly disrupted | state of fibrils by electron microscopy at 100 μM compound [5]: mostly disrupted; state of fibrils by electron microscopy at 1 mM compound [5]: mostly disappeared |
| – | effective | Cc1c(C(=O)O)c(O)cc2c1C(=O)c1c(O)c([C@@H]3O[C@H](CO)[C@@H](O)[C@H](O)[C@H]3O)c(O)c(O)c1C2=O [carminic acid] | – | – | – | – | – |
| – | effective | Cc1cc(N)c2ccccc2[n+]1CCCCCCCCCC[n+]1c(C)cc(N)c2ccccc21 [dequalinium dichloride] | – | – | – | – | – |
| – | effective | Clc1ccc(COC(Cn2ccnc2)c2ccc(Cl)cc2Cl)cc1 (centres unmarked) [econazole nitrate] | – | – | – | – | – |
| – | effective | COC(=O)c1c(C)c2c(c(C)c1O)OC(=O)c1c(C)c(Cl)c(O)c(Cl)c1O2 [leoidin] | – | – | – | – | – |
